Assay results as given in ChEMBL document CHEMBL1201862, “PubChem BioAssay data set” (2004).
Activity calls are given as the source filed them.

Key:
[1] = target: T1, High affinity choline transporter 1 (Homo sapiens, UniProt Q9GZV3); assay: CHT inhibitors, dose response, cell-based, 5-point CRC, membrane potential dye (AID 504840); assay type: functional
T1 sequence (Q9GZV3 whole entry): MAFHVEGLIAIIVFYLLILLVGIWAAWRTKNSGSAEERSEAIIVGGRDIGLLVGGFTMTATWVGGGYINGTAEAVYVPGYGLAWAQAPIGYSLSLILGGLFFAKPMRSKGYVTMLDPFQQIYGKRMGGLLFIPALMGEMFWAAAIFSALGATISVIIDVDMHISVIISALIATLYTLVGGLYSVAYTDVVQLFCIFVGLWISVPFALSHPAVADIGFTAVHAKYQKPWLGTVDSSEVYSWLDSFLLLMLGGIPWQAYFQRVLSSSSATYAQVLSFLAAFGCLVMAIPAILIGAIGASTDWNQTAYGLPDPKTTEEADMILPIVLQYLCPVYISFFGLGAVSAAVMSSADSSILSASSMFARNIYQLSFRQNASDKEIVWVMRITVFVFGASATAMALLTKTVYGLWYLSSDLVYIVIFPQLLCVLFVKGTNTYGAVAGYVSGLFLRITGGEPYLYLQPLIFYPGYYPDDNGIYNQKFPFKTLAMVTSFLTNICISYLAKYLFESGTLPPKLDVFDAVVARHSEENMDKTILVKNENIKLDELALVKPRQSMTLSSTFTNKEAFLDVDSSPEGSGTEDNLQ

[2] = THP-1 cell cytotoxicity, dose response, cytotoxicity control for non-replicating M. tuberculosis project (AID 489025); assay type: functional
cells = assay type: functional
[3] = target: Induced myeloid leukemia cell differentiation protein Mcl-1 (Homo sapiens, UniProt Q07820); assay type: functional
[4] = target: T2, Rac GTPase-activating protein 1 (Homo sapiens, UniProt Q9H0H5); assay: MgcRacGAP GTPase-activating activity inhibitors, confirmation, biochemical, ADP Hunter fluorescence, primary and confirmatory (AID 624330); assay type: functional
T2 sequence (Q9H0H5 whole entry): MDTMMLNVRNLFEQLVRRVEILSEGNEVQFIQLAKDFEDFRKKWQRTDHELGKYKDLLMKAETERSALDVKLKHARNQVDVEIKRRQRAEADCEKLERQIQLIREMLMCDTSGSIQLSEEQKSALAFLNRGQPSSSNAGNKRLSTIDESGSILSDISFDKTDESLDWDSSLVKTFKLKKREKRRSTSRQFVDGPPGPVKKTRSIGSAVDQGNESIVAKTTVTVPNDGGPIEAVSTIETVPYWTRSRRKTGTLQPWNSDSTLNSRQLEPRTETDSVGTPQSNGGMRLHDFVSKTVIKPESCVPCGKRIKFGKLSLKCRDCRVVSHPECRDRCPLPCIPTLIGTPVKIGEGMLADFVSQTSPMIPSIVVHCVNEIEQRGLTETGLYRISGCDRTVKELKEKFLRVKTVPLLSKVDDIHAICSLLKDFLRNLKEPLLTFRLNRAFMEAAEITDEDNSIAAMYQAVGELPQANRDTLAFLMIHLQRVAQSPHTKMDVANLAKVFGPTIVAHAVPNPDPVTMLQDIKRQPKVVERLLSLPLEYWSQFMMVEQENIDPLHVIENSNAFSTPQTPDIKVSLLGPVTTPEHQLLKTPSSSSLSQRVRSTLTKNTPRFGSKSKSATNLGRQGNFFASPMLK

[5] = target: T3, Polyadenylate-binding protein 1 (Homo sapiens, UniProt P11940); assay: PABP1 MLLE–PAM2 interaction inhibitors, dose response, miRNA deadenylation inhibitor project, biochemical, fluorescence polarization, Cy5-PAM2 peptide, secondary (AID 602260); assay type: functional; details: read-out: IC50_Mean
[6] = target: T3, Polyadenylate-binding protein 1; assay: PABP1 MLLE–PAM2 binding inhibitor potency, dose response, biochemical, fluorescence polarization, FITC-PAM2 peptide (AID 602259); assay type: functional; details: read-out: IC50_Mean
Aminopeptidase N = target: T4, Aminopeptidase N (Plasmodium falciparum FcB1/Columbia, UniProt O96935); assay: P. falciparum M1AAP inhibitors, biochemical, fluorogenic H-Leu-NHMec substrate, 1536-well (AID 1445); set-up: species or system Plasmodium falciparum 3D7, 3D7
T4 sequence (O96935 whole entry): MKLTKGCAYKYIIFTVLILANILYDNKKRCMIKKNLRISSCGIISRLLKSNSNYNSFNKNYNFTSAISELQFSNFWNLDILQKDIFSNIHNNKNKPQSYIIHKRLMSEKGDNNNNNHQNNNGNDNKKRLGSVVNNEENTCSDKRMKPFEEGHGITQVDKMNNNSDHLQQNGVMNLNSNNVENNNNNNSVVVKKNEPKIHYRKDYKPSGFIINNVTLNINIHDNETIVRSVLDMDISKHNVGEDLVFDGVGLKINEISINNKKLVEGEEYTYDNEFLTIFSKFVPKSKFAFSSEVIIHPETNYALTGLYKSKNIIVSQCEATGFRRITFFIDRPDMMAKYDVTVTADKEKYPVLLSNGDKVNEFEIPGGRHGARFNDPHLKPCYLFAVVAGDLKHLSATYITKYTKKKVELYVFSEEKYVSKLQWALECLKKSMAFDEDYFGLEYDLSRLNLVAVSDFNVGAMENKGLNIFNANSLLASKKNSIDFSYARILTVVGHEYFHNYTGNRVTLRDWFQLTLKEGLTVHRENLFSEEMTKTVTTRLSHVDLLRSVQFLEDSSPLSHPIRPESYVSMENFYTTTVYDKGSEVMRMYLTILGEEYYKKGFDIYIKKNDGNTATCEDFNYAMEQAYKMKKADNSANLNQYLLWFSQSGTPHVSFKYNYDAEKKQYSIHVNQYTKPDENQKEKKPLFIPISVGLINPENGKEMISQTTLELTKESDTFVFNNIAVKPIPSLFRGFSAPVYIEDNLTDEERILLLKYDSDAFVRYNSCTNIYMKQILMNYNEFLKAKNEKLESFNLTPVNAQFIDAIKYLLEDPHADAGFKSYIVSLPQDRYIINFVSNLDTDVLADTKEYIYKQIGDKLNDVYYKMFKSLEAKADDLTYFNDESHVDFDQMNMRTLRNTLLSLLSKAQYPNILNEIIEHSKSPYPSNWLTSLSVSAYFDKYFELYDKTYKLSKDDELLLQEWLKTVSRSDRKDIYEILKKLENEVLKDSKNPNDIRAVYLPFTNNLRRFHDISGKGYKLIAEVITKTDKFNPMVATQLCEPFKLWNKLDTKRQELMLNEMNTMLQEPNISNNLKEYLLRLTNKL

[7] = growth suppression of beta-catenin-knockout colon cells, dose response, cell-based, HCT116, human colon tumor (AID 1045); assay type: functional;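 note: HCT116 colon tumor cells with beta catenin knocked out; cells exposed to compound for 60 hours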
[8] = growth suppression of PTEN-null colon cells, dose response, cell-based, HCT116 PTEN knockout (AID 1047); assay type: functional;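 note: HCT116 colon tumor cells with PTEN knocked out; cells exposed to compound for 60 hours before readout; potency for loss of cell viability measured by luminescence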
[9] = A549 cell cytotoxicity, dose response, cytotoxicity control, plate reader, cherry-pick, antagonist series (AID 743412); assay type: functional, cell-based
Protein skinhead-1 = target: T5, Protein skinhead-1 (Caenorhabditis elegans, UniProt P34707); assay type: functional
T5 sequence (P34707 whole entry): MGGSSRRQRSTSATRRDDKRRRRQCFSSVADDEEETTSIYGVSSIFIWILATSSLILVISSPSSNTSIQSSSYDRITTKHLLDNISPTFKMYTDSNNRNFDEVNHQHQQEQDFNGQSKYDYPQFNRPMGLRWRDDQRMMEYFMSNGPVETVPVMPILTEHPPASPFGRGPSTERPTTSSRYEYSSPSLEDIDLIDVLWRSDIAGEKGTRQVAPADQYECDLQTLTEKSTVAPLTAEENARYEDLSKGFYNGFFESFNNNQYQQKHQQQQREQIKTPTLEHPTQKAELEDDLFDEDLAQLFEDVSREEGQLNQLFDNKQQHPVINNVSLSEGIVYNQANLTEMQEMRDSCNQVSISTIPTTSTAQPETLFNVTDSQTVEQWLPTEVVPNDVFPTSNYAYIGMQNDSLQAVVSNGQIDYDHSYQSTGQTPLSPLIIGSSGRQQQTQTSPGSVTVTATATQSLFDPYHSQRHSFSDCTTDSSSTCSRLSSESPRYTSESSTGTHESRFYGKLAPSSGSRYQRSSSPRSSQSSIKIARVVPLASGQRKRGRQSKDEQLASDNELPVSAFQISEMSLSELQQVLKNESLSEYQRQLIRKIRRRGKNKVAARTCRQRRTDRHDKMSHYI

[10] = inhibitors of HIV Env-driven cell fusion, dose response, cherry-pick (AID 652057); assay type: functional, cell-based
[11] = ZM109 Env clade C HIV-1 fusion inhibitors, dose response, HeLa effector, CEM target cells, luciferase, cherry-pick (AID 652058); assay type: functional, cell-based
HeLa = assay: HeLa cell cytotoxicity, dose response, cytotoxicity control for MITF activator project, CellTiter-Glo luminescence, cherry-pick samples (AID 540259); assay type: functional, cell-based; details: Homo sapiens
[12] = NIH-3T3 fibroblast cytotoxicity, dose response, cytotoxicity control, cell-based, fluorescence, Alamar Blue, secondary assay (AID 2327); assay type: functional;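 note: NIH-3T3 mouse fibroblasts cultured with fluconazole at 8 µg/mL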
[13] = C. albicans growth with fluconazole, confirmation, fluorescence, retest (AID 2467); assay type: functional, cell-based
Fatty acid synthase [14] = target: T6, Fatty acid synthase (Homo sapiens, UniProt P49327); assay: FAS thioesterase domain inhibitors, dose response, biochemical, endpoint fluorescence intensity, uHTS hits (AID 624327); assay type: functional;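 note: fluorescence from hydrolysis of an O-methyl fluorescein acyl ester substrate by the enzyme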
Fatty acid synthase [15] = target: T6, Fatty acid synthase; assay: FAS thioesterase domain inhibitors, dose response, biochemical, kinetic fluorescence intensity (AID 624326); assay type: functional;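 note: rate of fluorescence rise from hydrolysis of a fluorogenic O-methyl fluorescein ester substrate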

Chain of Induced myeloid leukemia cell differentiation protein Mcl-1 (Q07820 whole entry): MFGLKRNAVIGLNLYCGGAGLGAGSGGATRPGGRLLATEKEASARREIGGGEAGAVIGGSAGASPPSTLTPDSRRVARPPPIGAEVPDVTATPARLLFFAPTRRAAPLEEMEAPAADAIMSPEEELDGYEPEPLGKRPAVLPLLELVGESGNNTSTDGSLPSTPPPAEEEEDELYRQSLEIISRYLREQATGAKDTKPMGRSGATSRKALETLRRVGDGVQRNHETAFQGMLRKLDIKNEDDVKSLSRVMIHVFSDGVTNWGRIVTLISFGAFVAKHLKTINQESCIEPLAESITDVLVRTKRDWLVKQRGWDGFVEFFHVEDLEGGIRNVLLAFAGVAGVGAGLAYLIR
T3 sequence (P11940 whole entry): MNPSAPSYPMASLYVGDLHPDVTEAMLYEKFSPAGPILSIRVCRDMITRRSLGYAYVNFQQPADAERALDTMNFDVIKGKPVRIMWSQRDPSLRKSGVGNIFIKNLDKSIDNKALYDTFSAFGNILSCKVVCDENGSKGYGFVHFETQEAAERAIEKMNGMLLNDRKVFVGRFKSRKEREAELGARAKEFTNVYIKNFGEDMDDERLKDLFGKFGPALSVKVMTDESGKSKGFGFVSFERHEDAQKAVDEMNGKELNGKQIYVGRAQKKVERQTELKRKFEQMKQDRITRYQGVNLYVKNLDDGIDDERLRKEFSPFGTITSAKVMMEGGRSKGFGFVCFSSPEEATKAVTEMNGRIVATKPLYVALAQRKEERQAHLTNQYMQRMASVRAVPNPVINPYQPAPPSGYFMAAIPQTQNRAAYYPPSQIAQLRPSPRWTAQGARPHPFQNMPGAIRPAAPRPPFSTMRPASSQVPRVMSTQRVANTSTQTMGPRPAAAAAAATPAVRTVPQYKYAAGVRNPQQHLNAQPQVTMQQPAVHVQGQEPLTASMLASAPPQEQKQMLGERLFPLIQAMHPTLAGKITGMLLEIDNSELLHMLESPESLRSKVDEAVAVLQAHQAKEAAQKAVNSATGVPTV
T6 sequence (P49327 whole entry, the tested form may be a part): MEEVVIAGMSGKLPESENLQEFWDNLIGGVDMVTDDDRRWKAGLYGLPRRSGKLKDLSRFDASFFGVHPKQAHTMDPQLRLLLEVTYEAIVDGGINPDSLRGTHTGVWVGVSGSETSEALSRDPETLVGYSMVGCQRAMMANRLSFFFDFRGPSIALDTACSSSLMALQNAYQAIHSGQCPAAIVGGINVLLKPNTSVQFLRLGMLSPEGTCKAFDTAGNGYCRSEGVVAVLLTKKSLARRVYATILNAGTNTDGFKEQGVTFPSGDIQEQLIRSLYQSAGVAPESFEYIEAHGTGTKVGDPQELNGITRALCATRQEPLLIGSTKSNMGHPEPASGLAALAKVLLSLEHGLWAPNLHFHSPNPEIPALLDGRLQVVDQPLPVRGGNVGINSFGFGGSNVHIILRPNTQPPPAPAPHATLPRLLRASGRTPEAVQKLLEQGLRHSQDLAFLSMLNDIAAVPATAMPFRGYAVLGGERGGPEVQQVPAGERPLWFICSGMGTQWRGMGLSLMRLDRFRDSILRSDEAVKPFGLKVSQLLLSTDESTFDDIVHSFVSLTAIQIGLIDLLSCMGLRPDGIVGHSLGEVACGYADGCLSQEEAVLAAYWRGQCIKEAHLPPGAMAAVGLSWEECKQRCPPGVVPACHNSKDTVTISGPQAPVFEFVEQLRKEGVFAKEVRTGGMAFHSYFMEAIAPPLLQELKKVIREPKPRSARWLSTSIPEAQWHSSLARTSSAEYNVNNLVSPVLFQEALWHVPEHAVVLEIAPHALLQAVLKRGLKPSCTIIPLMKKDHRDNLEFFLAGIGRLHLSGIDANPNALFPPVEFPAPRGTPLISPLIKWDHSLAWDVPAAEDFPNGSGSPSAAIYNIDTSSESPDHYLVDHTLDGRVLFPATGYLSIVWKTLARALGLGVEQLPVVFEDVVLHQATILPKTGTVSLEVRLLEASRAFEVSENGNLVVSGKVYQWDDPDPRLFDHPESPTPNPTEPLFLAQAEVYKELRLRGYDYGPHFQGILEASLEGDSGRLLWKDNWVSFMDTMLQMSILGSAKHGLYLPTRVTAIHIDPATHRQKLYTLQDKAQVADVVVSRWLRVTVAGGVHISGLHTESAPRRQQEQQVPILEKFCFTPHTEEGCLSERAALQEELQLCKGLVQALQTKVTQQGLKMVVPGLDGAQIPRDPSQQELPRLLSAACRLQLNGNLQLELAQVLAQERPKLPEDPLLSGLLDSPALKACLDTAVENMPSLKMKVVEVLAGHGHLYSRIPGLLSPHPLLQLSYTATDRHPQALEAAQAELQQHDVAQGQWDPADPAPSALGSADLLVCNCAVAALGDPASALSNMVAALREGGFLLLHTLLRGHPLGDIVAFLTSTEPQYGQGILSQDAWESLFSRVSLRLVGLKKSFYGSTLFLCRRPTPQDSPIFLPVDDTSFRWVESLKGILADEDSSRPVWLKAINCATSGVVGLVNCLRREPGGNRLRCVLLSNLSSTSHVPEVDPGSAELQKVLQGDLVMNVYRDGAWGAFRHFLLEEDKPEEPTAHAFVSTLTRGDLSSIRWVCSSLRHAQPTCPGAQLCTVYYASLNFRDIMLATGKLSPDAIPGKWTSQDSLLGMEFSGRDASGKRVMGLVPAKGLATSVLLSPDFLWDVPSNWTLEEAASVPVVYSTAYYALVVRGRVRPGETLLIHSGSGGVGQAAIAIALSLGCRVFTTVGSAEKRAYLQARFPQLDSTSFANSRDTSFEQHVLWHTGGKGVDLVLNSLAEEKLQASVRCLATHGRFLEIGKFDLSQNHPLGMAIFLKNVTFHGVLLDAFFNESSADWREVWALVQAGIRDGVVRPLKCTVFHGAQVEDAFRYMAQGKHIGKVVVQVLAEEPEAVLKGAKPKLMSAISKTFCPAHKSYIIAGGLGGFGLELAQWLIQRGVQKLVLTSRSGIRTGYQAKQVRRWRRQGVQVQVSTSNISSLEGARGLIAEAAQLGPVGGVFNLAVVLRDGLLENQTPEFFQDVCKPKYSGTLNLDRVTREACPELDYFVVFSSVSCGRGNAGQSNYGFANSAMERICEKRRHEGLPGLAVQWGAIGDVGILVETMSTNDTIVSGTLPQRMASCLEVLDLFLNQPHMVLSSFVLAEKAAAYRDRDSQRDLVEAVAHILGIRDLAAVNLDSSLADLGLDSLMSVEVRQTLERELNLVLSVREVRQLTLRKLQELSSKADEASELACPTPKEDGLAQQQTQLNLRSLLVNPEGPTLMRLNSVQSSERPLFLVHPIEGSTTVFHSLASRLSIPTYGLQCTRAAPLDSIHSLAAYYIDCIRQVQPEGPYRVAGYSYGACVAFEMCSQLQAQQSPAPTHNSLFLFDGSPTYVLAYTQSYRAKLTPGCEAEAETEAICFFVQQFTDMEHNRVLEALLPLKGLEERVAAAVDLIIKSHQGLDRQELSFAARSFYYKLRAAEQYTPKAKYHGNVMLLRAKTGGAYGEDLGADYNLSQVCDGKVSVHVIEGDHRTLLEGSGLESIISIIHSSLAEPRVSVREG

C/C(=N\N=C(N)N)c1ccc(Cl)cc1Cl
IC50 [1]: 14.8 µM (active)

Nc1ccc2nc3c(c(Cl)c2c1)CCCC3
CC50 [2]: 2.79 µM (active) | IC50 (cells): 13.7 µM (active)

CCc1nc(Nc2ccc(N3CCN(C(C)=O)CC3)cc2)c2oc3ccccc3c2n1
IC50 [3]: 5.67 µM (not active) | IC50 [4]: 36.8 µM (active)

COC(=O)[C@@]1(C)[C@H]2C(=O)N(Cc3ccccc3)C(=O)[C@H]2[C@H]2CN=C(SCC(=O)c3ccccc3)N21
IC50 [5]: > 66 µM (inactive) | IC50 [6]: > 66 µM (inactive)

CCOc1ccccc1C(=O)N1CCN=C1SCc1cccnc1
IC50 [5]: > 66 µM (inactive) | IC50 [6]: > 66 µM (inactive)

COC(=O)CN1C(=O)C2(C(C#N)=C(N)Oc3[nH]nc(-c4cccs4)c32)c2ccccc21 (configuration not stated)
IC50 (Aminopeptidase N): 36.7 µM (active)

COc1ccccc1C(=O)/C=C/c1ccc(N2CCCCC2)c([N+](=O)[O-])c1
EC50 [7]: 4.48 µM (active) | EC50 [8]: 5.52 µM (active)

CC1CCCCC1NC(=O)CN1C(=O)c2cccc(N)c2C1=O (configuration not stated)
IC50 [5]: > 66 µM (inactive) | IC50 [6]: 35.5 µM (inactive)

Cc1ccc(S(=O)(=O)N(C)C[C@H]2Oc3cc(Br)ccc3S(=O)(=O)N([C@H](C)CO)C[C@H]2C)cc1
AC50 [9]: 33.6 µM (active)

CN(C(=S)NC(=O)c1ccccc1)c1c(N)n(Cc2ccccc2)c(=O)[nH]c1=O
IC50 [5]: > 66 µM (inactive) | IC50 [6]: > 66 µM (inactive)

CC1=C(C(=O)Nc2cccc(C(=O)NC3CCCCC3C)c2)SCCO1 (configuration not stated)
IC50 [1]: 13.2 µM (active)

Cc1cccc(C)c1OCc1cc(C(=O)N2CCN(C3CCCC3)CC2)no1
IC50 [1]: 19.1 µM (active) | IC50 (Protein skinhead-1): > 100 µM (inactive)

COCC(C)n1c(SCC(=O)Nc2nccs2)nc2ccccc2c1=O (configuration not stated)
IC50 [5]: > 66 µM (inactive) | IC50 [6]: > 66 µM (inactive)

COc1ccc(C(C(=O)NC2CCCCC2)N(CC2CCCO2)C(=O)C2COc3ccccc3O2)cc1OC (configuration not stated)
EC50 [7]: 19.5 µM (active) | EC50 [8]: 12.7 µM (active)

CSc1ccccc1NC(=O)Nc1ccc(Cl)cc1
EC50 [7]: 46.5 µM (active) | EC50 [8]: 68.5 µM (active)

O=C(NCc1ccccc1)[C@@H]1CCCN1C(=O)[C@@H]1CCCN1C(=O)c1cccc2ccccc12
AC50 [10]: 54.2 µM (active) | AC50 [11]: 36 µM (active)

COC(=O)C(C)N1C(=O)S/C(=C/c2cc(C)n(C(C)C)c2C)C1=O (configuration not stated)
AC50 (HeLa): 52.9 µM (active)

c1ccc2sc(SCc3ccc(-c4nnco4)cc3)nc2c1
IC50 (Protein skinhead-1): 32.7 µM (active) | CC50 [2]: > 40 µM (active) | IC50 (cells): 27.4 µM (active)

CC(C)OCCCNC(=O)c1sc(=S)n(C)c1N
IC50 [5]: > 66 µM (inactive) | IC50 [6]: > 66 µM (inactive)

CN1CCC(N(C)c2nc(-c3ccc([N+](=O)[O-])cc3)nc3ccccc23)CC1
IC50 [3]: 3.99 µM (active) | EC50 [7]: 4.29 µM (active) | EC50 [8]: 5.17 µM (active)

COc1ccc(-c2ccc3ccccc3n2)cc1OC
AC50 (HeLa): 46.8 µM (active)

COC(=O)c1ccc(Oc2nc(C(N)=O)cc(-c3ccccc3)n2)cc1
EC50 [8]: 29.9 µM (active)

CSC(=Nc1ccc(Cl)cc1)NS(=O)(=O)c1cccs1
EC50 [12]: > 150 µM (inactive) | EC50 [13]: 1.15 µM (active)

COc1ccc(-c2nn(CCC(=O)O)cc2/C=C2\SC(N)=NC2=O)cc1OC
IC50 [3]: 4.63 µM (active)

Cc1cc(OC(C)C(=O)Nc2ccc(S(=O)(=O)Nc3onc(C)c3C)cc2)cc(C)c1Cl (configuration not stated)
IC50 [1]: 3.98 µM (active)

O=C(Cc1ccc(F)cc1)N/N=C/c1ccc(-c2ccc(Cl)c(C(=O)O)c2)o1
IC50 (Aminopeptidase N): 22.9 µM (active)

O=C(CSc1n[nH]c(-c2ccccc2)n1)Nc1ncc(Br)cc1Br
IC50 [1]: 14.5 µM (active)

C[C@@H]1CN([C@H](C)CO)C(=O)c2cc(NC(=O)Nc3ccc(F)cc3)ccc2O[C@@H](C)CCCCO[C@H]1CN(C)S(=O)(=O)c1cccs1
IC50 (Fatty acid synthase [14]): 5.17 µM (active) | IC50 (Fatty acid synthase [15]): 3.69 µM (active)
